# Legend:
# [1] = Microsomal stability assay, liver microsome half-life (human); assay type: in vitro ADME; conditions: pH 7.4; human liver microsomes 0.5 mg/mL + NADPH, 1 μM compound, 37° C; read-out: Liver microsome + NADPH T½ (min) Human
# From the text: (§1) Microsomal Stability Assay: Microsomal stability assay is a widely used in vitro model to characterize the metabolic conversion by phase I enzymes, such as cytochrome P450 (CYP) enzymes. Since metabolism is known to be highly variable in different species, microsomal stability assay is commonly run in multiple species. Metabolic stability of testing compound can be evaluated using human, rat, mouse, or other animal liver or intestine microsomes to predict intrinsic clearance.
# (§2) The assay was carried out in 96-well microtiter plates at 37° C. Reaction mixtures (25 μL) contained a final concentration of 1 μM test compound, 0.5 mg/mL liver microsomes protein, and 1 mM NADPH and/or 1 mM UDPGA (with alamethicin) in 100 mM potassium phosphate, pH 7.4 buffer with 3 mM MgCl2. The incubation was done with N=1, but duplicate incubation at each time point can be prepared if necessary. At each of the time points (for example, 0, 15, 30, and 60 minutes), 150 μL of quench solution (100% acetonitrile with 0.1% formic acid) with internal standard was transferred to each well. Besides the zero minute controls, mixtures containing the same components except the NADPH can also be prepared as the negative control. Verapamil was included as a positive control to verify assay performance. Plates were sealed, vortexed, and centrifuged at 4° C. for 15 minutes at 4000 rpm. The supernatant is transferred to fresh plates for LC/MS/MS analysis.
# (§3) Summarized conditions: [Compound]=1 μM, [LM]=0.5 mg/mL, [NADPH]=1 mM and/or [UDPGA]=1 mM, Buffer=100 mM Potassium Phosphate, pH 7.4 with 3 mM MgCl2, Time=0, 15, 30, and 60 min, and Temperature=37° C.
# (§4) All samples were analyzed on LC/MS/MS using an AB Sciex API 4000 instrument, coupled to a Shimadzu LC-20AD LC Pump system. Analytical samples were separated using a Waters Atlantis T3 dC18 reverse phase HPLC column (20 mm×2.1 mm) at a flow rate of 0.5 mL/min. The mobile phase consisted of 0.1% formic acid in water (solvent A) and 0.1% formic acid in 100% acetonitrile (solvent B).
# (§5) The extent of metabolism is calculated as the disappearance of the test compound, compared to the 0-min time incubation. Initial rates are calculated for the compound concentration and used to determine half-life (t1/2).
# [2] = Microsomal stability assay, liver microsome half-life (mouse); assay type: in vitro ADME; conditions: pH 7.4; mouse liver microsomes 0.5 mg/mL + NADPH, 1 μM compound, 37° C; read-out: Liver microsome + NADPH T½ (min) Mouse
# From the text: as §1, §2, §3, §4, §5
# androgen receptor (AR) = target: T1, androgen receptor (AR) (Homo sapiens, UniProt P10275); assay: Androgen-induced PSA-luciferase assay, Luciferase Assay B (cells stably expressing ARR2PB or PSA-firefly luciferase reporter, 384-well); assay type: cell-based; conditions: Luciferase Assay B (Compounds A186-A219 and A221-A245); stable luciferase reporter cells, 1 h pretreatment, R1881 24 h, serum-free; read-out: PSA-Luc IC50 Range
# T1 sequence (P10275 1-920 T878A): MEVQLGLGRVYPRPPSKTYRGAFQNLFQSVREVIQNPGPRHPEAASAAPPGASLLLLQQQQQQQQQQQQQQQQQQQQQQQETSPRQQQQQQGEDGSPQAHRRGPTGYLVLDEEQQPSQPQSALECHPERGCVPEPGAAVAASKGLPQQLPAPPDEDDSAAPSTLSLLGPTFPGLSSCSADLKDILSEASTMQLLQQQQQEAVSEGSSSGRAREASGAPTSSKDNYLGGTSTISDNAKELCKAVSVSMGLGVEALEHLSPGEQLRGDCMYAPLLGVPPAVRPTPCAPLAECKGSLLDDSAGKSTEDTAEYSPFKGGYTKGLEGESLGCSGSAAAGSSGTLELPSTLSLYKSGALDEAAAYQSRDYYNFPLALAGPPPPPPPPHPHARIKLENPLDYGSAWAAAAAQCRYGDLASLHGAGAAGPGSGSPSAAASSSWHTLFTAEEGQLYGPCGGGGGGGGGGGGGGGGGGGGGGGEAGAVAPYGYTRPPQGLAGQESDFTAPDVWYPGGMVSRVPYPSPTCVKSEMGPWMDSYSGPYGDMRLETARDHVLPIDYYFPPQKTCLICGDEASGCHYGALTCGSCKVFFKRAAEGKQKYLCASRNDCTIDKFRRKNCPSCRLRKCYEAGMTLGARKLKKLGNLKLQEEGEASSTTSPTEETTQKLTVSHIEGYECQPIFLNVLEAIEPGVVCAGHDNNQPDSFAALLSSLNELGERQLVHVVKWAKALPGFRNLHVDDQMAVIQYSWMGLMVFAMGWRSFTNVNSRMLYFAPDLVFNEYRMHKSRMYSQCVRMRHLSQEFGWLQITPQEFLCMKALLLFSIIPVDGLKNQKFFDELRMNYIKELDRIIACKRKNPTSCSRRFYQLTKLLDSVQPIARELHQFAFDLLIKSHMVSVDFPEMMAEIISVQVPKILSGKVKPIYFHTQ
# [3] = Microsomal stability assay, liver microsome half-life (monkey); assay type: in vitro ADME; conditions: pH 7.4; monkey liver microsomes 0.5 mg/mL + NADPH, 1 μM compound, 37° C; read-out: Liver microsome + NADPH T½ (min) Monkey
# From the text: as §1, §2, §3, §4, §5
# [4] = Microsomal stability assay, liver microsome half-life (dog); assay type: in vitro ADME; conditions: pH 7.4; dog liver microsomes 0.5 mg/mL + NADPH, 1 μM compound, 37° C; read-out: Liver microsome + NADPH T½ (min) Dog
# From the text: as §1, §2, §3, §4, §5
# [5] = Microsomal stability assay, liver microsome half-life (rat); assay type: in vitro ADME; conditions: pH 7.4; rat liver microsomes 0.5 mg/mL + NADPH, 1 μM compound, 37° C; read-out: Liver microsome + NADPH T½ (min) Rat
# From the text: as §1, §2, §3, §4, §5
Structure (SMILES),half-life at 1 μM [1],half-life at 1 μM [2],IC50 (androgen receptor (AR)),half-life at 1 μM [3],half-life at 1 μM [4],half-life at 1 μM [5]
"CS(=O)(=O)Nc1cnc2cc(-c3ccc(N(CC(F)(F)F)c4cc(Cl)c(OC5CC5)c(C#N)c4)cc3)ccc2n1 [Compound A186, N-(6-(4-((3-chloro-5-cyano-4-cyclopropoxyphenyl) (2,2,2-trifluoroethyl)amino)phenyl)quinoxalin-2-yl)methanesulfonamide]",> 120 min,> 120 min,< 500 nM,> 120 min,> 120 min,> 120 min
CS(=O)(=O)Nc1nc2ccc(-c3ccc(Oc4cc(Cl)c(OC5CC5)c(C#N)c4)cc3)cc2cc1F [Compound A191],> 120 min,> 120 min,500 to 2000 nM,> 120 min,> 120 min,> 120 min
CS(=O)(=O)Nc1cnc2cc(-c3ccc(Oc4cc(C#N)c(OC5CC5)c(C(F)(F)F)c4)cc3)ccc2n1 [Compound A190],> 120 min,> 120 min,500 to 2000 nM,> 120 min,> 120 min,> 120 min
CS(=O)(=O)Nc1cnc2cc(-c3ccc(Oc4cc(C#N)c(OC5CC5)c(C#N)c4)cc3)ccc2n1 [Compound A198],> 120 min,> 120 min,< 500 nM,> 120 min,> 120 min,> 120 min
[2H]C([2H])([2H])N(c1ccc(-c2ccc3nc(NS(C)(=O)=O)cnc3c2)cc1)c1cc(Cl)c(OC2CC2)c(C#N)c1 [Compound A187],> 120 min,> 120 min,500 to 2000 nM,> 120 min,> 120 min,> 120 min

# Other lines, results leading:
half-life at 1 μM [1],half-life at 1 μM [2],IC50 (androgen receptor (AR)),half-life at 1 μM [3],half-life at 1 μM [4],half-life at 1 μM [5],Structure (SMILES)
> 120 min,> 120 min,< 500 nM,> 120 min,> 120 min,> 120 min,CS(=O)(=O)Nc1nccc(COc2ccc(N(CC(F)(F)F)c3cc(Cl)c(OC4CC4)c(C#N)c3)cc2)n1 [Compound A202]
> 120 min,> 120 min,< 500 nM,> 120 min,> 120 min,> 120 min,CS(=O)(=O)Nc1cnc2cc(-c3ccc(N(CC(F)(F)F)c4cc(F)c(OC5CC5)c(C#N)c4)cc3)ccc2n1 [Compound A199]
> 120 min,> 120 min,< 500 nM,> 120 min,> 120 min,> 120 min,CN(c1ccc(-c2ccc3nc(NS(C)(=O)=O)cnc3c2)cc1)c1cc(F)c(OC2CC2)c(C#N)c1 [Compound A208]
> 120 min,> 120 min,500 to 2000 nM,> 120 min,> 120 min,> 120 min,N#Cc1cc(Oc2ccc(-c3ccc4nc(N5CC(O)C5)cnc4c3)cc2)cc(Cl)c1OC1CC1 [Compound A205]

# Source: patent publication US20230373934A1, “ANDROGEN RECEPTOR MODULATORS AND METHODS FOR THEIR USE” (ESSA Pharma, Inc., priority 2022, published 2023)
